Laboratory results: ChEMBL document CHEMBL4507291 (2021)

How the values were obtained:
[1] = molecular target: Dual specificity tyrosine-phosphorylation-regulated kinase 3 (Homo sapiens) (UniProt O43781); experiment: DYRK3 Kinase screen; conditions: Compound concentration 1.0 uM
[2] = molecular target: Mitogen-activated protein kinase 1 (Homo sapiens) (UniProt P28482); experiment: MAPK1 (ERK2) Kinase screen; conditions: Compound concentration 1.0 uM
[3] = molecular target: T1, Serine/threonine-protein kinase Nek9 (Homo sapiens) (UniProt Q8TD19); experiment: NEK9 Kinase screen; conditions: Compound concentration 1.0 uM
T1 sequence (whole entry): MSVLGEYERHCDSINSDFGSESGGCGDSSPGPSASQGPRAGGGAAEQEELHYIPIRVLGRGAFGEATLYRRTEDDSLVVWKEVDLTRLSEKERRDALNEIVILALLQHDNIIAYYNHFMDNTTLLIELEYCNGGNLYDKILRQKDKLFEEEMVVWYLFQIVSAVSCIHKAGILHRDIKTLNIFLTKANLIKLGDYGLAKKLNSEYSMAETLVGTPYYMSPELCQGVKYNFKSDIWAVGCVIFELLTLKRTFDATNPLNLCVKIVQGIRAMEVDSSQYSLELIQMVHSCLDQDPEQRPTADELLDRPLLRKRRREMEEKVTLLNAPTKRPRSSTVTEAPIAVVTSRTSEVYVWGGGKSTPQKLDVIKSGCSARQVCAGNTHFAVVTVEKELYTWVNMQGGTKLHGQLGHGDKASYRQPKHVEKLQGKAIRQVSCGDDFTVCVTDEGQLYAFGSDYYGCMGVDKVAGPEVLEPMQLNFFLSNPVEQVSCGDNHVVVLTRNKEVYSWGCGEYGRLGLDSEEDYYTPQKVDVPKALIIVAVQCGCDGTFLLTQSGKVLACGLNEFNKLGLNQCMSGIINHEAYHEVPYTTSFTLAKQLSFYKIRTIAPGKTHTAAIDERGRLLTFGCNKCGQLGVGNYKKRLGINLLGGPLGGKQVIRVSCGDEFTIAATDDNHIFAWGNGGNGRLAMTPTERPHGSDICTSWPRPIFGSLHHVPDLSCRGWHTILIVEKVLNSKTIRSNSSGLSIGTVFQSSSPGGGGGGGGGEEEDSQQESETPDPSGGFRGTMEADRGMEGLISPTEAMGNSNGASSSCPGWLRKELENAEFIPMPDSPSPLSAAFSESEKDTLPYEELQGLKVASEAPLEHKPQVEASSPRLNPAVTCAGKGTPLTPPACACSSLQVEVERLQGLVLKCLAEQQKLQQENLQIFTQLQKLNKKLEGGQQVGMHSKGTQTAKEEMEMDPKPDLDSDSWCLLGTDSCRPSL

[4] = molecular target: Glutamate NMDA receptor (Rattus norvegicus) (UniProt P35439+Q00959+Q00960+Q00961+Q62645+Q8VHN2+Q9R1M7); conditions: Compound concentration 10.0 uM
[5] = molecular target: Melanocyte-stimulating hormone receptor (Homo sapiens) (UniProt Q01726); experiment: Melanocortin MC1 Eurofins-Panlabs radioligand binding assay; conditions: Compound concentration 10.0 uM
[6] = molecular target: RAC-alpha serine/threonine-protein kinase (Homo sapiens) (UniProt P31749); experiment: AKT1 (PKB alpha) Kinase screen; conditions: Compound concentration 1.0 uM
[7] = molecular target: T2, Homeodomain-interacting protein kinase 4 (Homo sapiens) (UniProt Q8NE63); experiment: HIPK4 Kinase screen; conditions: Compound concentration 1.0 uM
T2 sequence (whole entry): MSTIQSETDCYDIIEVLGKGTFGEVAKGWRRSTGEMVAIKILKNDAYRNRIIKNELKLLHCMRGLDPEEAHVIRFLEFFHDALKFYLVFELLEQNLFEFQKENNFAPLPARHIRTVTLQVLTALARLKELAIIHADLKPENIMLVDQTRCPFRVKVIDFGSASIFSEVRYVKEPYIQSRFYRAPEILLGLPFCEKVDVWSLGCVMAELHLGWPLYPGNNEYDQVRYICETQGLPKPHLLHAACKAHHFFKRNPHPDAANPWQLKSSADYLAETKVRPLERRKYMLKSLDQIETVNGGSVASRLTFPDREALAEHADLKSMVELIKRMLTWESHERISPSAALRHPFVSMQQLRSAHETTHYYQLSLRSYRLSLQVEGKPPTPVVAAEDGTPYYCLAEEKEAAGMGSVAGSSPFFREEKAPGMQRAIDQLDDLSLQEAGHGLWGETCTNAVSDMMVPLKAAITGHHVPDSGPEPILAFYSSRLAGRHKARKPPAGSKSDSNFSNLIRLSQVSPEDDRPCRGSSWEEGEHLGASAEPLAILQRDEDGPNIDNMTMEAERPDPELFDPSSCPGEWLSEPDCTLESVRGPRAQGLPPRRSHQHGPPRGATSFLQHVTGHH

[8] = molecular target: T3, Dual specificity mitogen-activated protein kinase kinase 3 (Homo sapiens) (UniProt P46734); experiment: MAP2K3 (MEK3) Kinase screen; conditions: Compound concentration 1.0 uM
T3 sequence (whole entry): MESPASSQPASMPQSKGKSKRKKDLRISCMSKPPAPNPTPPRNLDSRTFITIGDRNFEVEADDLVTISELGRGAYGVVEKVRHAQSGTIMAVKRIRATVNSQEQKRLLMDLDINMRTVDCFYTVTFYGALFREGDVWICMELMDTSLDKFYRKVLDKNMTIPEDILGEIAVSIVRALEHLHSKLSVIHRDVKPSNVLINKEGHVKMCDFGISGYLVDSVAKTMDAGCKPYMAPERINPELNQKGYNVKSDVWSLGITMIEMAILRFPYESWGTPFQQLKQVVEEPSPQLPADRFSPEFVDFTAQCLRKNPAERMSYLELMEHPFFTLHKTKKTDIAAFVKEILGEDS

[9] = molecular target: Ribosomal protein S6 kinase alpha-4 (Homo sapiens) (UniProt O75676); experiment: RPS6KA4 (MSK2) Kinase screen; conditions: Compound concentration 1.0 uM
[10] = molecular target: T4, Alpha-2C adrenergic receptor (Homo sapiens) (UniProt P18825); experiment: Adrenergic alpha2C Eurofins-Panlabs radioligand binding assay; design: ligand concentration 1 nM, non-specific ligand with concentration 10 µM WB-4101, incubation time 60 min, incubation temperature 25 °C; conditions: Compound concentration 10.0 uM
T4 sequence (whole entry): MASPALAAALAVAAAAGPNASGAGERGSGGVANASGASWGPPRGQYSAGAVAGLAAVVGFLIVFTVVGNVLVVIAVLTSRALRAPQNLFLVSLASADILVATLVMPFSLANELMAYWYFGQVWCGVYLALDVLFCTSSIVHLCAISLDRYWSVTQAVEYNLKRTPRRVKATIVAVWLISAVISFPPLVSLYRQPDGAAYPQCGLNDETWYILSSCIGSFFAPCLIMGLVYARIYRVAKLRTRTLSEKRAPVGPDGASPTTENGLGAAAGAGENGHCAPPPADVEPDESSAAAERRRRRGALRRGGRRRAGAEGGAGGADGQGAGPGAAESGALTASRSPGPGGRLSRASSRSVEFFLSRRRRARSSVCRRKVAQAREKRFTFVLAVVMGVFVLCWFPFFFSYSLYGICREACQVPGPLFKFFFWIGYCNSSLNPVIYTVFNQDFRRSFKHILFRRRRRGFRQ

[11] = molecular target: Gamma-aminobutyric acid type B receptor subunit 1 (Homo sapiens) (UniProt Q9UBS5); conditions: Rattus norvegicus; Compound concentration 10.0 uM
[12] = molecular target: Glycogen synthase kinase-3 alpha (Homo sapiens) (UniProt P49840); experiment: GSK3A (GSK3 alpha) Kinase screen; conditions: Compound concentration 1.0 uM
[13] = molecular target: Serine/threonine-protein kinase Chk2 (Homo sapiens) (UniProt O96017); experiment: CHEK2 (CHK2) Kinase screen; conditions: Compound concentration 1.0 uM

Measured: inhibition

Ribosomal protein S6 kinase alpha-4 (Homo sapiens), sequence (O75676 whole entry, looked up): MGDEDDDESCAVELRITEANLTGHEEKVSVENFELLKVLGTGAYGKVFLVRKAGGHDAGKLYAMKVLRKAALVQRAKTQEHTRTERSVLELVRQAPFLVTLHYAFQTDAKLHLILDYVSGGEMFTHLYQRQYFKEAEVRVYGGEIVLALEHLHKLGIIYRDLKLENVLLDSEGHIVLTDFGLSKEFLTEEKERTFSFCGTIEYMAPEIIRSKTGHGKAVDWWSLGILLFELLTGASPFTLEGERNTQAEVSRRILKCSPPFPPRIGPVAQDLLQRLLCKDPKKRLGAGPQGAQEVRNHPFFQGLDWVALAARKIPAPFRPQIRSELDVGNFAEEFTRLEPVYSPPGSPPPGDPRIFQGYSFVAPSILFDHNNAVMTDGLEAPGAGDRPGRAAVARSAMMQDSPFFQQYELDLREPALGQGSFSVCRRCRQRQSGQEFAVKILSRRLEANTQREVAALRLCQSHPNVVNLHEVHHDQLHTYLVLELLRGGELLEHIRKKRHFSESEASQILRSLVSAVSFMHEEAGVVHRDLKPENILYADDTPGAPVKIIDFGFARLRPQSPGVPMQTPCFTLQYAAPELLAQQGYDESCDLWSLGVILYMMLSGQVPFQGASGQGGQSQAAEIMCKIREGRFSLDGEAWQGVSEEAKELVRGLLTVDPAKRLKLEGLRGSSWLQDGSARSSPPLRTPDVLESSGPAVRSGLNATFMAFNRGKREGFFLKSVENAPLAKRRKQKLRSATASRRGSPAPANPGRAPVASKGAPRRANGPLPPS
Serine/threonine-protein kinase Chk2 (Homo sapiens), sequence (O96017 whole entry): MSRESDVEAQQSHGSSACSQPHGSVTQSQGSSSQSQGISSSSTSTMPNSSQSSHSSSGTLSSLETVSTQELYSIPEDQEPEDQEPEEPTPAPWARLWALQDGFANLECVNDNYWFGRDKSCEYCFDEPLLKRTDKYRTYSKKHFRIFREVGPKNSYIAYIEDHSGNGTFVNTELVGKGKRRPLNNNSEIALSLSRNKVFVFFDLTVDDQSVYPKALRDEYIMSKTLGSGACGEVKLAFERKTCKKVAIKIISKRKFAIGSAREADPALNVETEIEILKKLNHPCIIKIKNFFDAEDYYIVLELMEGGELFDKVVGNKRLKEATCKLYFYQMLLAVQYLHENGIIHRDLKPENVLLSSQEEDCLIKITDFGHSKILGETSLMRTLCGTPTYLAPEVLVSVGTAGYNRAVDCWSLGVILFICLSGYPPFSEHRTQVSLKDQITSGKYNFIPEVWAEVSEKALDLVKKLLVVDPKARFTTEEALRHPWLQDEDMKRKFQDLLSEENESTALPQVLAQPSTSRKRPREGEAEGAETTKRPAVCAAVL
Melanocyte-stimulating hormone receptor (Homo sapiens), sequence (Q01726 whole entry, looked up): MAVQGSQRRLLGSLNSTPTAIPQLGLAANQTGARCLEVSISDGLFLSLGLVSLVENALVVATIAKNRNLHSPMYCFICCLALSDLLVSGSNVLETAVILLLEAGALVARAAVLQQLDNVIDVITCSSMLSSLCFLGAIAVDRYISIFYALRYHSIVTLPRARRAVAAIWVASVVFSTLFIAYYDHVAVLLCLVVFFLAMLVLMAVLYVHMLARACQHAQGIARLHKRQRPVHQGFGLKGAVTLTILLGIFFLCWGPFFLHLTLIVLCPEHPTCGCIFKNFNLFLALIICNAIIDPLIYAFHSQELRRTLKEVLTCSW
Dual specificity tyrosine-phosphorylation-regulated kinase 3 (Homo sapiens), sequence (O43781 whole entry): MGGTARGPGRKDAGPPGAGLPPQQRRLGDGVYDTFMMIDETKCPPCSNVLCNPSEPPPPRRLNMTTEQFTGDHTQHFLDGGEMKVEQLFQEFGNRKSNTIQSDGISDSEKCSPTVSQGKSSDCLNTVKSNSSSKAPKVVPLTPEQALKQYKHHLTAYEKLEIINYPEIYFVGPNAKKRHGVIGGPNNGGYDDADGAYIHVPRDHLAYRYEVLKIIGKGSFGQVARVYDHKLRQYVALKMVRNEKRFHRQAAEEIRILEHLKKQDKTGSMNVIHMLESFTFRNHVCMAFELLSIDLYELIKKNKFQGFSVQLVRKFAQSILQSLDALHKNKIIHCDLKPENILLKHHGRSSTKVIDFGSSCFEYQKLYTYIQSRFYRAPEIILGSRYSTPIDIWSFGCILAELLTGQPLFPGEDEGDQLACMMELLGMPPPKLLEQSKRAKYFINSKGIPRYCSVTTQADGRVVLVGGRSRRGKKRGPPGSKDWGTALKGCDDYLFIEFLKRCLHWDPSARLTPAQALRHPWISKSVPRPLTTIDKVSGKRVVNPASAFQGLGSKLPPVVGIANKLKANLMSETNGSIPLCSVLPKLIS
RAC-alpha serine/threonine-protein kinase (Homo sapiens), sequence (P31749 whole entry): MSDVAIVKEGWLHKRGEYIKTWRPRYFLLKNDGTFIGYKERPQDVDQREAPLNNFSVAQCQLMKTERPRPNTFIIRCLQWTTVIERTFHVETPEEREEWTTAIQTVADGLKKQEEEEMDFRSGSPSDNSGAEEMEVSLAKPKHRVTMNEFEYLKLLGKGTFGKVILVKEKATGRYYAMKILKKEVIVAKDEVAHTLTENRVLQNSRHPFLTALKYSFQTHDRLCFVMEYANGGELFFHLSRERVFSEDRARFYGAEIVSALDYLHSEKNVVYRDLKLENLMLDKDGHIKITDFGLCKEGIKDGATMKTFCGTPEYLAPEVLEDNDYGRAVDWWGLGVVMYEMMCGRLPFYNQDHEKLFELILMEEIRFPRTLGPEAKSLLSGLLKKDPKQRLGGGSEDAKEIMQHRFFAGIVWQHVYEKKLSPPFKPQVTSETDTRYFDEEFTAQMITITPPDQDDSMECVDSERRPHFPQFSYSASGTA
Glycogen synthase kinase-3 alpha (Homo sapiens), sequence (P49840 2-483 limits assumed): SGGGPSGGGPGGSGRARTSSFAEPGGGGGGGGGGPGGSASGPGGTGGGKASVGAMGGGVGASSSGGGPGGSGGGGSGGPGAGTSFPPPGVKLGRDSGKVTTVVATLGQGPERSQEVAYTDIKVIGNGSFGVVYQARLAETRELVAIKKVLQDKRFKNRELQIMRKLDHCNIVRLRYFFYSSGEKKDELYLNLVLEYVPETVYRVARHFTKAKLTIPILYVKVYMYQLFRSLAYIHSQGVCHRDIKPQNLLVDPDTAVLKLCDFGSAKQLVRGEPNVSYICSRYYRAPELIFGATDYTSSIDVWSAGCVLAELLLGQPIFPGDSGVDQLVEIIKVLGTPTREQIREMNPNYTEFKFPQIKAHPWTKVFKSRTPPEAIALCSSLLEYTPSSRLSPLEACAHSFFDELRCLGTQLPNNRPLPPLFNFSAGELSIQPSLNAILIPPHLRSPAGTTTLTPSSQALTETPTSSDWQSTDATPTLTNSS
Mitogen-activated protein kinase 1 (Homo sapiens), sequence (P28482 whole entry): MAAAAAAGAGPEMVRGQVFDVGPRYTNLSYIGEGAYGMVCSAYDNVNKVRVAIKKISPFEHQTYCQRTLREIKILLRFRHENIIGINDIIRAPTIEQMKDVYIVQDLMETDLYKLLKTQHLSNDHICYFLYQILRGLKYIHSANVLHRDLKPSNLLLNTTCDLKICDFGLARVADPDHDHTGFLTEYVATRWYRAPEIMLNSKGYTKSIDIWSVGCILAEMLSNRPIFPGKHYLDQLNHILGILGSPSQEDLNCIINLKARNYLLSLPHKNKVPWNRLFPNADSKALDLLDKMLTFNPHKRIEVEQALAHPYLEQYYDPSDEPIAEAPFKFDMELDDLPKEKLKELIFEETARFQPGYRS
Gamma-aminobutyric acid type B receptor subunit 1 (Homo sapiens), sequence (Q9UBS5 whole entry): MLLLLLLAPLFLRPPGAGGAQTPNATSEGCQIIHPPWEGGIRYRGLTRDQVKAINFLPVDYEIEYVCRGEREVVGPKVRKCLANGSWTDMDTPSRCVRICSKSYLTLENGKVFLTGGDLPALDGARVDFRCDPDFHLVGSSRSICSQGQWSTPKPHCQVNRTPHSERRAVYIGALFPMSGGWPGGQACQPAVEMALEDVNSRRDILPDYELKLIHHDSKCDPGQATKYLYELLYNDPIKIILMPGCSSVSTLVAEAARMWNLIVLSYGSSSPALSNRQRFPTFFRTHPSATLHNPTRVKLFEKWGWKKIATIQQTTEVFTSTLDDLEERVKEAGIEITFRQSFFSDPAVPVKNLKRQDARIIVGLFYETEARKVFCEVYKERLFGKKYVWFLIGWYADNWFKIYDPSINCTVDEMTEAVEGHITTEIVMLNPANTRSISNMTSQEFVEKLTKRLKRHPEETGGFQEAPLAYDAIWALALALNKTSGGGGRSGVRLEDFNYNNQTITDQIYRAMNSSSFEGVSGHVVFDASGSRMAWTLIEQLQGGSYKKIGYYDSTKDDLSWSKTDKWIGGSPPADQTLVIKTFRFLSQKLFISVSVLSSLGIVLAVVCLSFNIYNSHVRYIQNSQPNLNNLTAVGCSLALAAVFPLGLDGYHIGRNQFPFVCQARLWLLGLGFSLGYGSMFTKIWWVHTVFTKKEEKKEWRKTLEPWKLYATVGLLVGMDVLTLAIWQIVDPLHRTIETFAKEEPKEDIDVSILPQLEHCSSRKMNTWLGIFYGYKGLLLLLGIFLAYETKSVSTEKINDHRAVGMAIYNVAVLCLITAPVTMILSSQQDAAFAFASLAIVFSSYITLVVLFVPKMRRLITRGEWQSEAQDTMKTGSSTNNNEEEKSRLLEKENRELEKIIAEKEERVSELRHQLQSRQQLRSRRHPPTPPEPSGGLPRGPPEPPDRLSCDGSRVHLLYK

C[C@@H]1CN(c2cc(-c3n[nH]c4ccc(OC5(C)CC5)cc34)ncn2)C[C@H](C)O1 [MLi-2]
inactive: [1] 2.54% | [2] -3.99% | [3] -0.999% | [4] 4% | [5] -1% | [6] 6.75% | [7] 6.2% | [8] -2.3% | [9] 7.68% | [10] 14% | [11] -3% | [12] 0.0184% | [13] 14.9%
